Experimental data published in patent publication US11040954B1, “CXCR3 receptor agonists” (RECEPTOS LLC, priority 2016, dated 2021).

How the values were obtained:
CXCR3 = molecular target: T1, CXCR3 (Homo sapiens, UniProt P49682); experiment: CXCR3 cAMP agonist assay (cAMP Hunter CHOK1 CXCR3 Gi cell line, forskolin-stimulated, HitHunter cAMP detection); format: cell-based; settings: cAMP Hunter CHOK1 CXCR3 Gi cells, 20 μM forskolin, 30 minutes; read-out: Activity (CXCR3 cAMP agonist assay compound EC50)
T1 construct: host or cells: CHO-K1 (cAMP Hunter CHOK1 CXCR3 Gi cell line)
T1 sequence (P49682 1-368): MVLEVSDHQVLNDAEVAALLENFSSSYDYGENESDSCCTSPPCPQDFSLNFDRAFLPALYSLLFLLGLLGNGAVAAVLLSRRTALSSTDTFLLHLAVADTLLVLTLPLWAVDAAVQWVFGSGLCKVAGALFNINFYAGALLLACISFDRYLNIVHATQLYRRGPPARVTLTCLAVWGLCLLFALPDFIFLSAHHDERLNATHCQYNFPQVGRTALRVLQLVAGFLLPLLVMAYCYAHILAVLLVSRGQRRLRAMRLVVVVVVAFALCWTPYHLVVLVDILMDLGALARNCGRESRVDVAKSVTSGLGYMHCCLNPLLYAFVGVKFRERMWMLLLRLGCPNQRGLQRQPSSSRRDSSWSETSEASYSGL
Summary of the method: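 CHOK1 cells expressing human CXCR3 with Gi coupling, 50,000/well in suspension in HBSS/10 mM HEPES/0.1% BSA pH 7.4, were co-treated with 20 μM forskolin and compound (12-point, 0-10 μM, 1% DMSO) for 30 min. cAMP was read by enzyme-complementation luminescence; CXCL11 dose response set maximum efficacy.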

[1] = Mouse pharmacokinetics after oral gavage, plasma drug concentration by LC-MS/MS (BALB/c); format: in vivo; settings: 10 mg/kg, male mice; for Cmax / AUC(0-t): mouse, plasma; for AUC(0-t): read-out: AUC0-24
Experimental: (§1) Compounds were formulated in 5% DMSO/5% Tween20 in H2O, sonicated, vortexed, and put on stir plate overnight at a dose volume of 10 mL/kg. Balb/C (Jackson laboratories) or C57bl/6 (Taconic Biosciences) mice (8-9 weeks old) were acclimated to the colony for 3 days prior to dosing. Water and food were provided ab libitum. Compounds were administered by oral gavage. Groups of six animals received 3 to 4 bleeds per day with one terminal bleed. The time points were 30 min, 1 h, 2 h, 4 h, 6 h, 8 h, 24 h. Plasma was collected via centrifugation and analyzed for drug concentrations.
(§2) Preparation of Study Samples and Standards for Analysis by LC-MS/MS
(§3) 50 μl of plasma was aliquoted into a 96 well deep-well polypropylene plate (2 mL) to which 5 μL of DMSO was added. For standards, 5 μl of test compound in DMSO at […] the standard concentration was added to 50 μl of blank matrix in a 96 well deep-well polypropylene plate. For example, for a 300 nM standard, the 10× DMSO concentration was 3 μM. Study samples that require dilution are diluted with the appropriate blank matrix. For example, for a 10× dilution, 5 μL of study sample is added to 45 μl of blank matrix. Protein was precipitated from study samples and standards with the addition of 150 μl of acetonitrile. After a clean plate map was placed firmly over the top of the 96-well plate, a bench top shaker was used for 1 min to ensure complete precipitation of protein. The precipitated protein was pelleted by centrifuging for 3,000 rpm for 10 min at 20° C. and then the clear supernatant was transferred to a clean 96-well plate and spun again under the same conditions in order to pellet any solid material that may have been transferred.
(§4) Analysis of Study Samples and Standards with LCMS with MRM Detection
(§5) An Agilent 1200 HPLC with binary pump and a Leap CTC with fast wash autosampler were used to introduce samples to the mass spectrometer.
(§6) The column used was a Phenomenex Luna C8 30×2 mm 5 μm with a security guard. Mass detection was performed by an Applied Biosystems 4000 Qtrap in MRM mode and ionization was achieved by positive electrospray with a source temperature of 500° C. The ion transitions, […] potential and collision energies were dependent on the specific analyte.
(§7) Prepared samples were usually analyzed in reverse chronological order with bracketing standard curves. Typically at least 6 standards were used for quantification with a percent accuracy of +/−15% for all standards except at the LLOQ where a percent accuracy of +/−20% was allowed. The concentration time profile was fit using a one compartment model for the applicable mode of dosing using Phoenix WinNonLin 6.4.

[2] = Mouse pharmacokinetics after oral gavage, plasma drug concentration by LC-MS/MS (C57BL/6); format: in vivo, C57bl/6 mice; settings: for Cmax / AUC(0-t): mouse, plasma; for AUC(0-t): read-out: AUC0-24
Experimental: as §1, §2, §3, §4, §5, §6, §7

Row | EC50 (CXCR3) | apparent oral clearance (CL/F) [1] | Cmax [1] | AUC(0-t) [1] | apparent oral clearance (CL/F) ([2]; C57BL/6, 60 mg/kg, female mice) | Cmax ([2]; C57BL/6, 60 mg/kg, female mice) | AUC(0-t) ([2]; C57BL/6, 60 mg/kg, female mice) | Cmax ([2]; C57BL/6, 10 mg/kg, male mice) | AUC(0-t) ([2]; C57BL/6, 10 mg/kg, male mice) | apparent oral clearance (CL/F) ([2]; C57BL/6, 10 mg/kg, male mice) | Structure (SMILES)
1 | < 50 nM | 86 mL/min/kg | 1900 nM | 3.3 µM·h | – | – | – | – | – | – | Cc1ccc(NC(=O)[C@H](CCN)NC(=O)[C@@H]2Cc3ccccc3CN2C(=O)CCC(=O)c2ccccc2)cc1C(F)(F)F [Compound 2-7]
2 | < 50 nM | 782 mL/min/kg | 70 nM | 0.34 µM·h | – | – | – | – | – | – | Cc1c(NC(=O)[C@H](CCCCN)NC(=O)[C@@H]2Cc3ccccc3CN2C(=O)CCC(=O)c2ccccc2)ccc(Cl)c1Cl [Compound 1-25]
3 | < 50 nM | – | 3 nM | 0.006 µM·h | – | – | – | – | – | – | NCCCC[C@H](NC(=O)[C@@H]1Cc2ccccc2CN1C(=O)CCC(=O)c1ccccc1)C(=O)Nc1ccc(F)c(C(F)(F)F)c1 [Compound 1-26]
4 | < 50 nM | 4627 mL/min/kg | 30 nM | 0.06 µM·h | – | – | – | – | – | – | Cc1cc(NC(=O)[C@H](CCCN)NC(=O)[C@@H]2Cc3ccccc3CN2C(=O)CCC(=O)c2ccccc2)ccc1Cl [Compound 4-3]
5 | < 50 nM | – | – | – | 280 mL/min/kg | 3100 nM | 6 µM·h | – | – | – | Cc1cc(NC(=O)[C@H](CCN)NC(=O)[C@@H]2Cc3ccccc3CN2C(=O)CCC(=O)N2CCCC(C)(C)C2)ccc1Cl [Compound 12-88]
6 | < 50 nM | – | – | – | 666 mL/min/kg | 600 nM | 2.4 µM·h | – | – | – | CC1(C)CCCCN1C(=O)CCC(=O)N1Cc2ccccc2C[C@H]1C(=O)N[C@@H](CCN)C(=O)Nc1ccc(Cl)c(Cl)c1F [Compound 15-3]
7 | < 50 nM | 389 mL/min/kg | 500 nM | 0.8 µM·h | – | – | – | – | – | – | Cc1cccc(NC(=O)[C@H](CCN)NC(=O)[C@@H]2Cc3ccccc3CN2C(=O)CCC(=O)c2ccccc2)c1 [Compound 2-5]
8 | < 50 nM | – | – | – | 222 mL/min/kg | 3200 nM | 7.7 µM·h | – | – | – | Cc1cc(NC(=O)[C@H](CCN)NC(=O)[C@@H]2Cc3ccccc3CN2C(=O)CCC(=O)c2ccccc2)c(C#N)cc1Cl [Compound 14-18]
9 | < 50 nM | – | – | – | 98 mL/min/kg | 6700 nM | 16.3 µM·h | – | – | – | Cc1c(Cl)ccc(NC(=O)[C@H](CCN)NC(=O)[C@@H]2Cc3ccccc3CN2C(=O)CCC(=O)N2CCCC23CCC3)c1Cl [Compound 15-48]
10 | < 50 nM | – | – | – | 143 mL/min/kg | 5100 nM | 11.7 µM·h | – | – | – | Cc1c(Cl)cc(NC(=O)[C@H](CCN)NC(=O)[C@@H]2Cc3ccccc3CN2C(=O)CCC(=O)c2ccccc2)cc1Cl [Compound 27-3]
11 | < 50 nM | – | – | – | 47 mL/min/kg | 5200 nM | 33.8 µM·h | – | – | – | Cc1cc(NC(=O)[C@H](CCN)NC(=O)[C@@H]2Cc3ccccc3CN2C(=O)CCC(=O)c2ccccc2)c(OC(F)(F)F)cc1C [Compound 14-28]
12 | 50 to 250 nM | 527 mL/min/kg | 230 nM | 0.53 µM·h | – | – | – | – | – | – | NCCCC[C@H](NC(=O)[C@@H]1Cc2ccccc2CN1C(=O)CCC(=O)c1ccccc1)C(=O)Nc1ccc(Cl)c(F)c1 [Compound 1-20]
13 | < 50 nM | – | – | – | 16 mL/min/kg | 5200 nM | 99 µM·h | – | – | – | O=C(CCC(=O)N1Cc2ccccc2C[C@H]1C(=O)NC1(C(=O)Nc2ccc(Cl)c(Cl)c2F)CCNCC1)c1ccccc1 [Compound 4-14]
14 | < 50 nM | 47 mL/min/kg | 2900 nM | 6.2 µM·h | – | – | – | – | – | – | Cc1cc(NC(=O)[C@H](CCN)NC(=O)[C@@H]2Cc3ccccc3CN2C(=O)CCC(=O)c2ccccc2)c(F)cc1Cl [Compound 2-18]
15 | 50 to 250 nM | 66 mL/min/kg | 1800 nM | 4.3 µM·h | – | – | – | – | – | – | NCC[C@H](NC(=O)[C@@H]1Cc2ccccc2CN1C(=O)CCC(=O)c1ccccc1)C(=O)Nc1ccc(Cl)c(Cl)c1 [Compound 2-1, (S)—N—((S)-4-amino-1-((3,4-dichlorophenyl)amino)-1-oxobutan-2-yl)-2-(4-oxo-4-phenylbutanoyl)-1,2,3,4-tetrahydroisoquinoline-3-carboxamide]
16 | < 50 nM | – | – | – | – | – | – | 6 nM | 0.011 µM·h | – | Cc1cc(NC(=O)[C@H](CCCCN)NC(=O)[C@@H]2Cc3ccccc3CN2C(=O)CCC(=O)c2ccccc2)ccc1Cl [Compound 1-14]
17 | < 50 nM | – | – | – | 393 mL/min/kg | 1500 nM | 4.4 µM·h | – | – | – | N#Cc1cc2c(cc1NC(=O)[C@H](CCN)NC(=O)[C@@H]1Cc3ccccc3CN1C(=O)CCC(=O)c1ccccc1)CCC2 [Compound 2-57]
18 | < 50 nM | – | – | – | 190 mL/min/kg | 2800 nM | 8.3 µM·h | – | – | – | NCC[C@H](NC(=O)[C@@H]1Cc2ccccc2CN1C(=O)CCC(=O)N1CCCC12CCC2)C(=O)Nc1ccc(Cl)c(Cl)c1F [Compound 12-152]
19 | < 50 nM | – | – | – | 34 mL/min/kg | 7300 nM | 48 µM·h | – | – | – | Cc1cc(NC(=O)[C@H](CC23CC(N)(C2)C3)NC(=O)[C@@H]2Cc3ccccc3CN2C(=O)CCC(=O)c2ccccc2)ccc1Cl [Compound 22-1, (S)—N—((S)-3-(3-aminobicyclo[1.1.1]pentan-1-yl)-1-((4-chloro-3-methylphenyl)amino)-1-oxopropan-2-yl)-2-(4-oxo-4-phenylbutanoyl)-1,2,3,4-tetrahydroisoquinoline-3-carboxamide]
20 | < 50 nM | – | – | – | 431 mL/min/kg | 1500 nM | 3.9 µM·h | – | – | – | NCC[C@H](NC(=O)[C@@H]1Cc2ccccc2CN1C(=O)CCC(=O)N1CCCC2(CCC2)C1)C(=O)Nc1ccc2c(c1)CCC2 [Compound 10-8]
21 | < 50 nM | – | – | – | – | – | – | 710 nM | 2.3 µM·h | 112 mL/min/kg | Cc1cc(NC(=O)[C@@H](NC(=O)[C@@H]2Cc3ccccc3CN2C(=O)CCC(=O)c2ccccc2)C2CCN(C(C)C)CC2)ccc1Cl [Compound 8-2]
22 | 50 to 250 nM | – | – | – | – | – | – | 810 nM | 8.3 µM·h | 33 mL/min/kg | Cc1cc(NC(=O)C2(NC(=O)[C@@H]3Cc4ccccc4CN3C(=O)CCC(=O)c3ccccc3)CCN(C)CC2)ccc1Cl [Compound 6-4]
23 | < 50 nM | – | – | – | 66 mL/min/kg | 7600 nM | 27.5 µM·h | – | – | – | NCC[C@H](NC(=O)[C@@H]1Cc2ccccc2CN1C(=O)CCC(=O)c1ccccc1)C(=O)Nc1ccc2c(c1)CCC2 [Compound 2-47]
24 | < 50 nM | – | – | – | 92 mL/min/kg | 4300 nM | 17.6 µM·h | – | – | – | NCC[C@H](NC(=O)[C@@H]1Cc2ccc(F)cc2CN1C(=O)CCC(=O)c1ccccc1)C(=O)Nc1ccc(Cl)c(Cl)c1F [Compound 27-7]
25 | < 50 nM | – | – | – | 22 mL/min/kg | 22000 nM | 78 µM·h | – | – | – | Cc1ccc(C(F)(F)F)c(NC(=O)[C@H](CCN)NC(=O)[C@@H]2Cc3ccccc3CN2C(=O)CCC(=O)c2ccccc2)c1 [Compound 14-17]
